Consider three molecules from patent publication US20230330254A1 (Regeneron Pharmaceuticals, Inc., priority 2022, published 2023).

≈ marks a conversion by molar mass, not a printed value. Like-named read-outs stand apart in the source and are kept apart here. Where a SMILES comes first, the peptide text is derived from it. [ ]: non-standard residue; d: D form. The star is where a group is joined. Bip(2'-Et,4'-O(CH2)4NH2) = CCc1cc(OCCCCN)ccc1-c1ccc(C[C@H](N)C(=O)O)cc1; Malonyl(2,2-Me2,histaminyl) = CC(C)(C(=O)NCCc1cnc[nH]1)C(=O)*; Nva(5-(3,5-Me2Ph)) = Cc1cc(C)cc(CCC[C@H](N)C(=O)O)c1; Ala(1H-tetrazol-5-yl) = N[C@@H](Cc1nnn[nH]1)C(=O)O; αMePhe(2-F) = C[C@](N)(Cc1ccccc1F)C(=O)O

Series [1] is described as follows: Plasma stability of payloads and linker-payloads, mouse plasma. It is filed as in vitro ADME. As to conditions: mouse, pooled plasma. As for the experimental part: The plasma stability of payloads and linker payloads of the disclosure were measured. For the assay, pooled frozen plasma (human, mouse or monkey) was thawed in cold water or a 37° C. water bath prior to experiment. Plasma was centrifuged at 4000 rpm for 5 min if any clots were observed, they were subsequently removed. If required, the pH was adjusted to 7.4±0.1. For the preparation of compounds and positive controls, a 1 mM intermediate solution was prepared by diluting 10 μL of their stock solution with 90 μL DMSO; a 1 mM intermediate solution of the positive control (Propantheline) was prepared by diluting 10 μL of its stock solution with 90 μL ultrapure water. Subsequently, 100 μM dosing solution for each compound was prepared by diluting 20 μL of the intermediate solution (1 mM) with 180 μL 45% MeOH/H2O. 98 μL of plasma was spiked with 2 μL of dosing solution (100 μM) to achieve the final concentration of 2 μM in duplicate. Samples were then incubated at 37° C. in a water bath. […] At each time point, 400 μL of stop solution (200 ng/mL tolbutamide plus 200 ng/mL labetalol in 50% ACN/MeOH) was added to precipitate protein and mixed thoroughly. Sample plates were then centrifuged at 4,000 rpm for 10 min. An aliquot of supernatant (50 μL) was transferred from each well and mixed with 100 μL ultrapure water. The samples were then shaken at 800 rpm for approximately 10 min before submitting for LC-MS/MS analysis.

Another series is described as follows: Water solubility. In kind it is physicochemical. As to conditions: Table 5C.
In series [2] the test system is Salmonella typhimurium TA98 and TA100. Description: Mini-Ames assay. It is filed as cell-based. As for the experimental part: The objective of this Mini-Ames study was to evaluate the test article LP11, for its ability to induce reverse mutations in the genome of strains of Salmonella typhimurium TA98 and TA100 in the presence and absence of metabolic activation (S9 mixture).
The Mini-Ames assay was conducted for the test article in the presence and absence of the S9 mixture, concurrently with the negative/solvent control (DMSO) using six wells and positive controls (2 μg/well TA98 alone, 0.2 μg/well TA100 alone or 0.4 μg/well TA98+TA100 in the presence of S9) using three wells. The tested dose levels for the test article, in the presence and absence of S9 mix, were 1000, 400, 160, 64, 25, 10, 4, and 1.5 μg per well, with each dose tested in triplicate. The study was conducted using fresh cultures of the bacterial strains and fresh test article formulations.

For series [3], the target named is T1, human glucagon-like peptide 2 receptor (GLP2R) (Homo sapiens, UniProt O95838).
T1 construct: full-length human GLP1R, cynomolgus GLP1R, human glucagon receptor (GCGR), human glucagon-like peptide 2 receptor (GLP2R); expressed in transfected cells; host or cells: HEK293/CRE-Luc
T1 sequence (O95838 1-553): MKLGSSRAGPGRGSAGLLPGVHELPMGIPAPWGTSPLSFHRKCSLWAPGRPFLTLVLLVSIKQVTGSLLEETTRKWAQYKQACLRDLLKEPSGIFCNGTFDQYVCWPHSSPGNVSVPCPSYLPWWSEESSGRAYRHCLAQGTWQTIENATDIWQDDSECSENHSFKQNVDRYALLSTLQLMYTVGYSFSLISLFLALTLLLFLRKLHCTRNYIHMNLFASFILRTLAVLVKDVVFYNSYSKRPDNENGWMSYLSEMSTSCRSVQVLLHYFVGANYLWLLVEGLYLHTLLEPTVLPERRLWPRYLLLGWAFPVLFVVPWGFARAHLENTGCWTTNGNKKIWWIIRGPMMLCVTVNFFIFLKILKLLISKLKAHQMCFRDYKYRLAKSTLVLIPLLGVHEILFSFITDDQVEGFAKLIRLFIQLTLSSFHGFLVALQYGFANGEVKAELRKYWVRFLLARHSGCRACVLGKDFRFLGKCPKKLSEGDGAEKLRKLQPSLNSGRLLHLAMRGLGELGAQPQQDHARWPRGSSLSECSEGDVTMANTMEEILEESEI
Nature of the series: Luciferase reporter assay, HEK293/CRE-Luc/hGLP2R (Example 17). The conditions noted are these: Table 28; CRE-dependent luciferase reporter activity. In kind it is cell-based. A general note: In a reporter assay the amount or activity of a reporter protein is the signal.

A further series has as its target human GLP1R (Homo sapiens, UniProt P43220). Nature of the series: CRE-Luc cAMP reporter assay, HEK293/CRE-Luc/hGLP1R (Example 24). More on the design: engineered to express full-length human GLP1R, cynomolgus GLP1R; expressed in transfected cells; host or cells: HEK293/CRE-Luc. In kind it is cell-based. The source says: To test the activity of GLP1R agonist payloads, GLP1R agonist linker-payloads (LPs), and anti-GLP1R antibody-tethered ligands (ATLs) of the invention, a cell-based cAMP responsive luciferase reporter assay was developed. To generate the assay cell line, the firefly luciferase gene was placed under the control of a cAMP response element (CRE) located upstream of a minimal promoter and transfected into HEK293 cells and referred to herein as HEK293/CRE-Luc cells. HEK293/CRE-Luc cells were then engineered to express full-length human GLP1R (HEK293/CRE-Luc/hGLP1R), cynomolgus GLP1R (HEK293/CRE-Luc/mfGLP1R), or mouse GLP1R (HEK293/CRE-Luc/mGLP1R).
Serial dilutions of free payload and linker payloads (LP) were performed in 100% DMSO (ATCC, #4-X-5), followed by 1:100 dilution in assay media. Test articles were added to cells (1:5 dilution) with the last well in each serial dilution series serving as a blank control containing only assay media for antibodies and ATLs or assay media with 0.2% DMSO for payloads and LPs. After a 5-hour incubation at 37° C., luciferase activity was determined by addition of ONE-Glo reagent (Promega, #E6130) followed by measurement of relative light units (RLUs) on an EnVision Plate Reader (Perkin Elmer).
EC50 values for luminescence assays were determined using a four-parameter logistic equation over a 12-point dose response curve (GraphPad Prism).

A short description of series [4]: Plasma stability of payloads (t½).

As usually defined, the solubility is how much of the substance goes into solution per volume. A lower solubility goes with a poorly soluble substance. What is called EC50 is the concentration needed to bring the measured effect to its halfway point.

Chain of human GLP1R (P43220 24-463): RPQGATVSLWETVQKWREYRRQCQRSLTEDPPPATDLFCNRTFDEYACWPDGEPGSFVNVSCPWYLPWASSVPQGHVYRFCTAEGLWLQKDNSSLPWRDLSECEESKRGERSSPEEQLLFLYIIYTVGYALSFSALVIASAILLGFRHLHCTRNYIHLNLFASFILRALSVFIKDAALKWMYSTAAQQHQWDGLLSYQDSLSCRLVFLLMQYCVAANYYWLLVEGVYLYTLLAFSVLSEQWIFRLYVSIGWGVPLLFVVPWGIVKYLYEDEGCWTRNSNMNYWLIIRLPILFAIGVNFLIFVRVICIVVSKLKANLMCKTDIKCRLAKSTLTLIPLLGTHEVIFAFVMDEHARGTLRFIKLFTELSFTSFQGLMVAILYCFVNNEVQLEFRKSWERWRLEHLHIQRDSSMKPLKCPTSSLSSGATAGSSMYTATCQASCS

With `CCc1cc(OCCCCn2cc(COCCOCCOCCOCCOCCOCCOCCOCCN)nn2)ccc1-c1ccc(C[C@H](NC(=O)[C@H](CC(=O)O)NC(=O)[C@H](CO)NC(=O)[C@@H](NC(=O)C(C)(Cc2ccccc2F)NC(=O)[C@@H](NC(=O)CNC(=O)[C@H](Cc2nn[nH]n2)NC(=O)C(C)(C)C(=O)NCCc2cnc[nH]2)[C@@H](C)O)[C@@H](C)O)C(=O)N[C@@H](CCCc2cc(C)cc(C)c2)C(N)=O)cc1` (stereo partly shown) [LP11, NH2-PEG8-triazole-P8], the half-life at 2 µM in series [1] (pH 7.4, Mouse, assay time 3 days, Table 5B, read-out: plasma stability T½) is more than 144 h; in series [1] (pH 7.4, Table 5A, mouse plasma, tested time C (3 days), read-out: plasma stability T½ (hr), mouse), more than 173 h; in series [1] (pH 7.4, Table 5C, read-out: Plasma Stability Mouse T½), more than 168 h. This molecule also registered a solubility in “Water solubility” of 60 mM (≈ 119 mg/mL). Further, in series [2], the “fold increase in mean number of revertant colonies vs negative/solvent control” value is listed as not above 2.0 fold. In addition, in series [2] (TA98 and TA100, with and without S9), the “mutagenicity (Mini-Ames conclusion)” value is recorded as “negative for mutagenicity”. Moreover, the “Ames (TA98 and TA100) in the presence and absence of S9” value in series [2] (Table 5C) is “Negative for mutagenicity”. Besides, the “cytotoxicity in Mini-Ames” value in series [2] (any dose level (1.5-1000 μg per well), with or without S9 mix) is “no obvious cytotoxicity”. Also, the “precipitates in Mini-Ames (naked eye after incubation)” value in series [2] (any dose level, with or without S9 mix) was “No obvious precipitates”.

Turning to `CCc1cc(OCCCCn2cc(COCCOCCOCCOCCOCCOCCOCCOCCN)nn2)ccc1-c1ccc(C[C@H](NC(=O)[C@H](CC(=O)O)NC(=O)[C@H](CO)NC(=O)[C@@H](NC(=O)[C@](C)(Cc2ccccc2F)NC(=O)[C@@H](NC(=O)CNC(=O)[C@H](Cc2nn[nH]n2)NC(=O)C(C)(C)C(=O)NCCc2cnc[nH]2)[C@@H](C)O)[C@@H](C)O)C(=O)N[C@@H](CCCc2cc(C)cc(C)c2)C(N)=O)cc1` [M3190], the EC50 in series [3] was more than 200 nM; at human GLP1R (Table 40, CRE-dependent reporter activity, no unit printed in table (text b1912 reads values as M)), 0.0168 nM. Further, the Emax on human GLP1R (HEK293, read-out: HEK293/CRE-Luc/hGLP1R Emax (% GLP-1)) was 93.9%.

For the molecule `CCc1cc(OCCCCN)ccc1-c1ccc(C[C@H](NC(=O)[C@H](CC(=O)O)NC(=O)[C@H](CO)NC(=O)[C@@H](NC(=O)[C@](C)(Cc2ccccc2F)NC(=O)[C@@H](NC(=O)CNC(=O)[C@H](Cc2nn[nH]n2)NC(=O)C(C)(C)C(=O)NCCc2cnc[nH]2)[C@@H](C)O)[C@@H](C)O)C(=O)N[C@@H](CCCc2cc(C)cc(C)c2)C(N)=O)cc1` [P9, (8S,14S,17S,20S,23S,26S)-8-((2H-tetrazol-5-yl)methyl)-26-(((S)-1-(((S)-1-amino-5-(3,5-dimethylphenyl)-1-oxopentan-2-yl)amino)-3-(4′-(4-aminobutoxy)-2′-ethyl-[1,1′-biphenyl]-4-yl)-1-oxopropan-2-yl)carbamoyl)-17-(2-fluorobenzyl)-14,20-bis((R)-1-hydroxyethyl)-23-(hydroxymethyl)-1-(1H-imidazol-5-yl)-5,5,17-trimethyl-4,6,9,12,15,18,21,24-octaoxo-3,7,10,13,16,19,22,25-octaazaoctacosan-28-oic acid] ({Malonyl(2,2-Me2,histaminyl)}-[Ala(1H-tetrazol-5-yl)]GT[αMePhe(2-F)]TSD[Bip(2'-Et,4'-O(CH2)4NH2)][Nva(5-(3,5-Me2Ph))]-NH2), in series [4], the “Plasma stability t½” value is more than 57.8 h.
